Structures can show the parent of a compound that is named as a salt.
Target: T1, human NaV1.8 (hNaV1.8) ion channel (Homo sapiens, UniProt Q9Y5Y9)
T1 construct: expressed in transfected cells
Assay: Inhibition of Human NaV1.8 stably expressed in SH-SY-5Y cells (membrane potential dye fluorescence assay)
Type: cell-based
Settings: SH-SY-5Y cells stably expressing hNaV1.8; FLIPR membrane potential dye; 10 μM pyrethroid, 250 nM TTX; test range 100 μM-0.05 μM; read-out: hNav1.8 IC50

T1 sequence (Q9Y5Y9 whole entry): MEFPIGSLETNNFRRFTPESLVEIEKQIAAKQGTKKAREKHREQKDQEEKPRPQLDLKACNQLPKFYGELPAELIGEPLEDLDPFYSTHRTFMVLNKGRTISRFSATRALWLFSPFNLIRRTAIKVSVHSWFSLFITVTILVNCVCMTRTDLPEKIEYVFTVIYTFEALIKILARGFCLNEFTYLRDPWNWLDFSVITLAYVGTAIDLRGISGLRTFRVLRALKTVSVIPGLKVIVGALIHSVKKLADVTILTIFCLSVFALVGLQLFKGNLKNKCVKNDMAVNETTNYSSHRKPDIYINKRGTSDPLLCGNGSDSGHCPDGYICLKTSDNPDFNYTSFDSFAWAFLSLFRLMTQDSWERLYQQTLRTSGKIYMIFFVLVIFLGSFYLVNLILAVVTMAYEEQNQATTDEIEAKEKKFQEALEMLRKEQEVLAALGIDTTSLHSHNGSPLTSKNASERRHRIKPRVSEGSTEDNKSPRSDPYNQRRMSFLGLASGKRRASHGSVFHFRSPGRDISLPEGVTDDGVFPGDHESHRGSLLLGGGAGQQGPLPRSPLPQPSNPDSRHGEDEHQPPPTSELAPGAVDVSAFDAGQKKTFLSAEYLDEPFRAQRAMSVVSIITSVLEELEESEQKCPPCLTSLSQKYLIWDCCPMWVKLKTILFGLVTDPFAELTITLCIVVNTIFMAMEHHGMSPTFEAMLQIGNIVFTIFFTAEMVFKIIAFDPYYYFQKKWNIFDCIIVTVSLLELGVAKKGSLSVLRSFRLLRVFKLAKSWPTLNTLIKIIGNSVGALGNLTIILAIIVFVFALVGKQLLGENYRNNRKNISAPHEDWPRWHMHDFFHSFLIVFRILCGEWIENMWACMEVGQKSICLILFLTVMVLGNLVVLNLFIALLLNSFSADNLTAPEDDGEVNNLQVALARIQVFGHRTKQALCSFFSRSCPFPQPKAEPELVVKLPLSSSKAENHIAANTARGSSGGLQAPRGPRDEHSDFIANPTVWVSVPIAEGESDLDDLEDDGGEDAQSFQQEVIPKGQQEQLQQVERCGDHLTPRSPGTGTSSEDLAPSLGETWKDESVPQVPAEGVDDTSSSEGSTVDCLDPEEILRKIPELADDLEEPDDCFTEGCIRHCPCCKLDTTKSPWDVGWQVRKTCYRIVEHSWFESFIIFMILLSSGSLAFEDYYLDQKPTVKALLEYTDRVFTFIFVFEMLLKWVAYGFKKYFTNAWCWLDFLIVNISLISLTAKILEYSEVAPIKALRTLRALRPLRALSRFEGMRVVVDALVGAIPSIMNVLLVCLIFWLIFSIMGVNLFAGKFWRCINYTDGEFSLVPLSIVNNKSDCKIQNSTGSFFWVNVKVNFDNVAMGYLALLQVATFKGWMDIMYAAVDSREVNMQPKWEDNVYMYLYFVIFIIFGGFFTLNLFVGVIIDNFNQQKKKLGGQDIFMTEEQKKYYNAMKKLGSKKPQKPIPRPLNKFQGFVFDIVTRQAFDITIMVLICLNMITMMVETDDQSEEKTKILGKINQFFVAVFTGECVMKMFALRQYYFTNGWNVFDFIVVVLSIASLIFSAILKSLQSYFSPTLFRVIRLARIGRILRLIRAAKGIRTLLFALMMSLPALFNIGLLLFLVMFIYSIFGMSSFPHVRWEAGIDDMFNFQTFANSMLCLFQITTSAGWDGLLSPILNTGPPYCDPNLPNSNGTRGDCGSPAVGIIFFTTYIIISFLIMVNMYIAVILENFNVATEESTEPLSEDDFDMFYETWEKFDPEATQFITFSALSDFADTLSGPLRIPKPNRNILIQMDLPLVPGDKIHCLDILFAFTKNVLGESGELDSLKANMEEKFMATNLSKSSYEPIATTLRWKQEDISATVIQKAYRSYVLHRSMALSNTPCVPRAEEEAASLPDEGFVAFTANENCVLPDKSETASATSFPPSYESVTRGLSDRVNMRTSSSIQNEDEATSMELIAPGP

| Structure (SMILES) | IC50 [nM] |
| --- | --- |
| CC(NC(=O)N1CC(NC2Cc3ccccc3C2)C1)c1ccc(C(F)(F)F)cc1 (stereo not shown) [Example 3, 3-(Indan-2-ylamino)-azetidine-1-carboxylic acid [1-(4-trifluoromethyl-phenyl)-ethyl]-amide] | 2980 |
| CC(c1ccc(F)cc1Cl)N(C(=O)C(F)(F)F)C1CN(C(=O)Nc2ccc(Oc3ccccc3)cc2)C1 (stereo not shown) [Example 92, 3-[[1-(2-Chloro-4-fluoro-phenyl)-ethyl]-(2,2,2-trifluoro-acetyl)-amino]-azetidine-1-carboxylic acid (4-phenoxy-phenyl)-amide] | 15100 |
| Cc1ccccc1C(C)NC1CN(C(=O)Nc2ccc(Oc3ccc(F)cc3)cc2)C1 (stereo not shown) [Example 108, 3-(1-o-Tolyl-ethylamino)-azetidine-1-carboxylic acid [4-(4-fluoro-phenoxy)-phenyl]-amide] | 270 |
| O=C(Nc1ccc(C(F)(F)F)cc1)N1CC(NC2CCc3cc(F)ccc32)C1 (stereo not shown) [Example 22, 3-(5-Fluoro-indan-1-ylamino)-azetidine-1-carboxylic acid (4-trifluoromethyl-phenyl)-amide] | 3110 |
| CC1CC(NC2CN(C(=O)Nc3ccc(Oc4ccccc4)cc3)C2)c2ccccc21 (stereo not shown) [Example 26, 3-(3-Methyl-indan-1-ylamino)-azetidine-1-carboxylic acid (4-phenoxy-phenyl)-amide] | 240 |
| CCCCOc1ccc(NC(=O)N2CC(NC(C)c3ccc(F)cc3)C2)cc1 (stereo not shown) [Example 66, 3-[1-(4-Fluoro-phenyl)-ethylamino]-azetidine-1-carboxylic acid (4-butoxy-phenyl)-amide] | 2270 |
| CC(c1ccc(F)cc1)N(C)C1CN(C(=O)Nc2ccc(OC(F)(F)F)cc2)C1 (stereo not shown) [Example 98, 3-{[1-(4-Fluoro-phenyl)-ethyl]-methyl-amino}-azetidine-1-carboxylic acid (4-trifluoromethoxy-phenyl)-amide] | 3190 |
| CC(c1ccc(F)cc1)N(C)C1CN(C(=O)Nc2ccc(Oc3ccccc3)cc2)C1 (stereo not shown) [Example 91, 3-{[1-(4-Fluoro-phenyl)-ethyl]-methyl-amino}-azetidine-1-carboxylic acid (4-phenoxy-phenyl)-amide] | 690 |
| CC(NC1CN(C(=O)Nc2cccc(Oc3ccccc3)c2)C1)c1ccc(F)cc1Cl (stereo not shown) [Example 58, 3-[1-(2-Chloro-4-fluoro-phenyl)-ethylamino]-azetidine-1-carboxylic acid (3-phenoxy-phenyl)-amide] | 1120 |
| CC(NC1CN(C(=O)Nc2ccc(Oc3ccccc3)cc2)C1)c1ccccc1C(F)(F)F (stereo not shown) [Example 88, 3-[1-(2-Trifluoromethyl-phenyl)-ethylamino]-azetidine-1-carboxylic acid (4-phenoxy-phenyl)-amide] | 1180 |
| CC(NC1CN(C(=O)Nc2ccc(Oc3ccccc3)cc2)C1)c1ccc(F)cc1 (stereo not shown) [Example 79, 3-[1-(4-Fluoro-phenyl)-ethylamino]-azetidine-1-carboxylic acid (4-phenoxy-phenyl)-amide] | 760 |
| O=C(Nc1ccc(Oc2ccc(F)cc2)nc1)N1CC(NC2CCc3cc(F)ccc32)C1 (stereo not shown) [Example 135, 3-(5-Fluoro-indan-1-ylamino)-azetidine-1-carboxylic acid [6-(4-fluoro-phenoxy)-pyridin-3-yl]-amide methanesulfonate salt] | 2170 |
| Cc1ccc(C(C)NC2CN(C(=O)Nc3ccc(C(F)(F)F)cc3)C2)cc1 (stereo not shown) [Example 122, 3-(1-p-Tolyl-ethylamino)-azetidine-1-carboxylic acid (4-trifluoromethyl-phenyl)-amide] | 1700 |
| O=C(Nc1ccc(Oc2ccccc2)cc1)N1CC(NC2CCc3ccccc32)C1 (stereo not shown) [Example 30, 3-(Indan-1-ylamino)-azetidine-1-carboxylic acid (4-phenoxy-phenyl)-amide] | 260 |
| Cc1ccccc1C(C)N(C)C1CN(C(=O)Nc2cccc(Oc3ccccc3)c2)C1 (stereo not shown) [Example 107, 3-[Methyl-(1-o-tolyl-ethyl)-amino]-azetidine-1-carboxylic acid (3-phenoxy-phenyl)-amide] | 510 |
| O=C(Nc1ccc(Oc2ccc(F)cc2)c(F)c1)N1CC(NC2CCc3cc(F)ccc32)C1 (stereo not shown) [Example 11, 3-(5-Fluoro-indan-1-ylamino)-azetidine-1-carboxylic acid [3-fluoro-4-(4-fluoro-phenoxy)-phenyl]-amide] | 460 |
| CC(NC1CN(C(=O)Nc2ccc(Oc3ccccc3)cc2)C1)c1ccc(OC(F)(F)F)cc1 (stereo not shown) [Example 70, 3-[1-(4-Trifluoromethoxy-phenyl)-ethylamino]-azetidine-1-carboxylic acid (4-phenoxy-phenyl)-amide] | 22100 |
| O=C(Nc1ccc(Oc2ccc(F)cc2)cc1)N1CC(NC2CCc3cc(F)ccc32)C1 (stereo not shown) [Example 136, 3-(5-Fluoro-indan-1-ylamino)-azetidine-1-carboxylic acid [4-(4-fluoro-phenoxy)-phenyl]-amide methanesulfonate salt] | 210 |
| CC(c1ccc(F)cc1Cl)N(C)C1CN(C(=O)Nc2ccc(Oc3ccccc3)cc2)C1 (stereo not shown) [Example 60, 3-{[1-(2-Chloro-4-fluoro-phenyl)-ethyl]-methyl-amino}-azetidine-1-carboxylic acid (4-phenoxy-phenyl)-amide] | 570 |

| Structure (SMILES) | IC50 [nM] |
| --- | --- |
| O=C(Cc1ccc(Oc2ccc(F)cc2)cc1)N1CC(NC2CCc3cc(F)ccc32)C1 (stereo not shown) [Example 48, 1-[3-(5-Fluoro-indan-1-ylamino)-azetidin-1-yl]-2-[4-(4-fluoro-phenoxy)-phenyl]-ethanone] | 690 |
| CCCCOc1cccc(NC(=O)N2CC(NC(C)c3ccc(F)cc3)C2)c1 (stereo not shown) [Example 69, 3-[1-(4-Fluoro-phenyl)-ethylamino]-azetidine-1-carboxylic acid (3-butoxy-phenyl)-amide] | 1320 |
| O=C(Cc1ccc(Oc2ccc(F)cc2)cc1)N1CC(NC2Cc3ccccc3C2)C1 [Example 49, 2-[4-(4-Fluoro-phenoxy)-phenyl]-1-[3-(indan-2-ylamino)-azetidin-1-yl]-ethanone] | 430 |
| O=C(Nc1ccc(Oc2ccccc2F)cc1)N1CC(NC2CCc3cc(F)ccc32)C1 (stereo not shown) [Example 14, 3-(5-Fluoro-indan-1-ylamino)-azetidine-1-carboxylic acid [4-(2-fluoro-phenoxy)-phenyl]-amide] | 540 |
| CC(c1ccccc1C(F)(F)F)N(C)C1CN(C(=O)Nc2ccc(Oc3ccccc3)cc2)C1 (stereo not shown) [Example 93, 3-{Methyl-[1-(2-trifluoromethyl-phenyl)-ethyl]-amino}-azetidine-1-carboxylic acid (4-phenoxy-phenyl)-amide] | 1800 |
| COc1ccc(C(C)NC2CN(C(=O)Nc3ccc(Oc4ccccc4)cc3)C2)cc1 (stereo not shown) [Example 54, 3-[1-(4-Methoxy-phenyl)-ethylamino]-azetidine-1-carboxylic acid (4-phenoxy-phenyl)-amide] | 420 |
| Cc1cc(F)ccc1C(C)NC1CN(C(=O)Nc2ccc(Oc3ccccc3)cc2)C1 (stereo not shown) [Example 111, 3-[1-(4-Fluoro-2-methyl-phenyl)-ethylamino]-azetidine-1-carboxylic acid (4-phenoxy-phenyl)-amide] | 630 |
| CC1(NC2CCc3ccccc3C2)CN(C(=O)Nc2ccc(C(F)(F)F)cc2)C1 (stereo not shown) [Example 42, 3-Methyl-3-(1,2,3,4-tetrahydro-naphthalen-2-ylamino)-azetidine-1-carboxylic acid (4-trifluoromethyl-phenyl)-amide] | 690 |
| Cc1ccc(C(C)N(C)C2CN(C(=O)Nc3ccc(Oc4ccccc4)cc3)C2)c(C)c1 (stereo not shown) [Example 105, 3-{[1-(2,4-Dimethyl-phenyl)-ethyl]-methyl-amino}-azetidine-1-carboxylic acid (4-phenoxy-phenyl)-amide] | 420 |
| CC(NC1CN(C(=O)Nc2ccc(Oc3ccc(F)cc3)cc2)C1)c1ccccc1Cl (stereo not shown) [Example 94, 3-[1-(2-Chloro-phenyl)-ethylamino]-azetidine-1-carboxylic acid [4-(4-fluoro-phenoxy)-phenyl]-amide] | 540 |
| O=C(Nc1ccc(Oc2ccc(F)cc2)c(F)c1)N1CC(NC2CCc3cc(Br)ccc32)C1 (stereo not shown) [Example 16, 3-(5-Bromo-indan-1-ylamino)-azetidine-1-carboxylic acid [3-fluoro-4-(4-fluoro-phenoxy)-phenyl]-amide] | 1720 |
| O=C(Nc1cccc(Oc2ccccc2)c1)N1CC(NC2CCc3cc(F)ccc32)C1 (stereo not shown) [Example 28, 3-(5-Fluoro-indan-1-ylamino)-azetidine-1-carboxylic acid (3-phenoxy-phenyl)-amide] | 430 |
| O=C(Nc1cccc(C(F)(F)F)c1)N1CC(NC2CCc3cc(F)ccc32)C1 (stereo not shown) [Example 24, 3-(5-Fluoro-indan-1-ylamino)-azetidine-1-carboxylic acid (3-trifluoromethyl-phenyl)-amide] | 2680 |
| COC(=O)C(NC1CN(C(=O)Nc2ccc(Oc3ccccc3)cc2)C1)c1ccccc1 (stereo not shown) [Example 53, [1-(4-Phenoxy-phenylcarbamoyl)-azetidin-3-ylamino]-phenyl-acetic acid methyl ester] | 2230 |
| O=C(Nc1ccc(Oc2ccccc2)cc1)N1CC(NC2CCc3ccccc3C2)C1 (stereo not shown) [Example 34, 3-(1,2,3,4-Tetrahydro-naphthalen-2-ylamino)-azetidine-1-carboxylic acid (4-phenoxy-phenyl)-amide] | 100 |
| Cc1cc(F)ccc1C(C)NC1CN(C(=O)Nc2cccc(C(F)(F)F)c2)C1 (stereo not shown) [Example 113, 3-[1-(4-Fluoro-2-methyl-phenyl)-ethylamino]-azetidine-1-carboxylic acid (3-trifluoromethyl-phenyl)-amide] | 2840 |
| CC(c1ccc(F)cc1)N(C)C1CN(C(=O)Nc2cccc(C(F)(F)F)c2F)C1 (stereo not shown) [Example 84, 3-{[1-(4-Fluoro-phenyl)-ethyl]-methyl-amino}-azetidine-1-carboxylic acid (2-fluoro-3-trifluoromethyl-phenyl)-amide] | 5800 |
| O=C(Nc1ccc(Oc2ccc(F)cc2)cc1)N1CC(NCc2c(F)cccc2F)C1 [Example 129, 3-(2,6-Difluoro-benzylamino)-azetidine-1-carboxylic acid [4-(4-fluoro-phenoxy)-phenyl]-amide] | 1490 |
